{"source": "paper PMC7055011", "about": "(Bioorganic & medicinal chemistry, 2019)", "key": {"[1]": {"assay": "Human liver microsomal stability", "type": "in vitro ADME", "details": "for CLint scaled at 2 h, 1 µM: human, microsomes, pH 7.4"}, "apelin receptor": {"test_system": "apelin receptor", "details": "cited from earlier work"}, "[2]": {"target": "T1, human angiotensin II receptor, type I (Homo sapiens, UniProt P30556)", "T1 sequence (P30556 1-359)": "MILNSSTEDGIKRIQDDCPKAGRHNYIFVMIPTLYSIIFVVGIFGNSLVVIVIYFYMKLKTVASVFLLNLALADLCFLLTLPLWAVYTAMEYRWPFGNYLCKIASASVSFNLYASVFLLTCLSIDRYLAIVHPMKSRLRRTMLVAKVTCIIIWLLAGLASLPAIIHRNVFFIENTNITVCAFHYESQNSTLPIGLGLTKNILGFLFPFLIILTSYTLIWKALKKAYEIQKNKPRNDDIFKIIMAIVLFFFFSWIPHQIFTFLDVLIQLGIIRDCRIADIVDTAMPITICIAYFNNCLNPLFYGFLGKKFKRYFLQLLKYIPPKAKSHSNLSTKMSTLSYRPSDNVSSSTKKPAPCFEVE", "details": "cited from earlier work"}, "NTR2": {"test_system": "NTR2", "details": "compared with hit 8; cited from earlier work"}, "hAPJ": {"target": "T2, hAPJ (Homo sapiens, UniProt P35414)", "T2 sequence (P35414 1-380)": "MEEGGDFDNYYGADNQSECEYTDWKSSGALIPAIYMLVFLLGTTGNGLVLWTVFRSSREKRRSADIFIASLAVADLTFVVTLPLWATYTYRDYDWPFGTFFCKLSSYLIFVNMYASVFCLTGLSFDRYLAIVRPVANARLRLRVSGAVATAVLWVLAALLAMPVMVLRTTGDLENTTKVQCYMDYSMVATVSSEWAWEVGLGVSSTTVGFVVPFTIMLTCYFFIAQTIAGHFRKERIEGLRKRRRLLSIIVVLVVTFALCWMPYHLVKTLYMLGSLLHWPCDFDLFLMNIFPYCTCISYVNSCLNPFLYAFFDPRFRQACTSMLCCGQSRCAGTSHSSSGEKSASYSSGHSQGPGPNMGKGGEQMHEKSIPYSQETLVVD", "assay": "Lance cAMP accumulation assay", "type": "cell-based"}, "[3]": {"details": "cited from earlier work"}, "[4]": {"test_system": "5-HT1A, α2C adrenergic, mu-opioid, benzylpiperazine receptors and norepinephrine transporter", "details": "cited from earlier work"}, "[5]": {"details": "cited from earlier work", "remark": "listed apart in the source"}}}
{"smiles": "CCOc1ccc2c(C)cc(=O)oc2c1", "note": "[7-ethoxy-4-methylcoumarin]", "values": [{"measurement": "CLint scaled at 2 h, 1 µM", "setting": "[1]", "result": 325, "unit": "mL/min/kg"}]}
{"smiles": "CCC(CC)n1c(Cc2cccs2)nc2cc(C(=O)N[C@H](CC(=O)O)CC(C)C)ccc21", "note": "[CMF-019, (S)-5-Methyl-3-{1-(pentan-3-yl)-2-(thiophen-2-ylmethyl)-1H-benzo[d]imidazole5-carboxamido}hexanoic Acid]", "values": [{"measurement": "Bias towards Gαi signaling over receptor internalization", "setting": "apelin receptor", "result": "~ 6000 fold"}, {"measurement": "Bias towards Gαi signaling over β-arrestin recruitment", "setting": "apelin receptor", "result": "~ 400 fold"}]}
{"smiles": "COc1cccc(OC)c1-c1cc(C(=O)N[C@@H](CCC2CCCCC2)CC(=O)O)nn1-c1ccc(F)cc1", "note": "[Compound 9, (S)-5-cyclohexyl-3-(5-(2,6-dimethoxyphenyl)-1-(4-fluorophenyl)-1H-pyrazole-3-carboxamido)pentanoic acid]", "values": [{"measurement": "Stability in human liver microsomes", "setting": "[1]", "result": "excellent stability"}, {"measurement": "CLint scaled at 2 h, 1 µM", "setting": "[1]", "result": 5, "unit": "mL/min/kg"}, {"measurement": "Activity at AT1 receptor, previously reported", "setting": "[2]", "result": "did not activate or inhibit"}, {"measurement": "Off-target NTR2 activity", "setting": "NTR2", "result": "significantly reduced"}]}
{"smiles": "COc1cccc(OC)c1-c1cc(C(=O)N[C@@H](CCC2CCCCC2)CC(=O)O)nn1CC1CCCCC1", "note": "[Compound 15, (S)-5-Cyclohexyl-3-(1-(cyclohexylmethyl)-5-(2,6-dimethoxyphenyl)-1H-pyrazole-3-carboxamido)pentanoic acid]", "values": [{"measurement": "Activity in cAMP assay", "setting": "hAPJ", "result": "completely inactive"}]}
{"smiles": "COc1cccc(OC)c1-c1cc(C(=O)N[C@@H](CCC2CCCCC2)CC(=O)O)nn1C1CCCCCCC1", "note": "[Compound 16, (S)-5-Cyclohexyl-3-(1-cyclooctyl-5-(2,6-dimethoxyphenyl)-1H-pyrazole-3-carboxamido)pentanoic acid]", "values": [{"measurement": "Activity in cAMP assay", "setting": "hAPJ", "result": "completely inactive"}]}
{"smiles": "CC1=CC(=O)C(C2CCCCC2)=C/C1=N\\OS(=O)(=O)c1ccccc1", "note": "[ML233, (E)-2-cyclohexyl-5-methyl-4-(phenylsulfonyloxyimino)cyclohexa-2,5-dienone]", "values": [{"measurement": "Stability in microsomal fractions", "setting": "[3]", "result": "poor"}, {"measurement": "Off-target binding", "setting": "[4]", "result": "significant off-target binding"}, {"measurement": "Solubility", "setting": "[5]", "result": "poor solubility"}]}
